This note sets out measurements from US20180064738A1, “METHOD OF TREATING INFECTIONS USING SILOXANE DERIVATIVES” (priority 2014, published 2018).

One data set has as its system shaved skin of mice. In words: Topical irritation and DMBA skin tumor study in mice. The conditions noted are these: Group II.
Another data set relates to IL-1. In words: Flow cytometry of skin cells for the inflammatory cytokine IL-1. Format: in vivo, C57/BL6 mice. To be noted: Group II, DMBA alone. On the procedure: These animals received no other treatment.
Flow cytometry analyses: The skin and some associated soft tissues on the backs of all mice were excised. Representative portions of the skin and dermis were prepared for flow cytometry analysis by being divided into single cell suspensins using a 100 μm cell strainer followed by centrifugation (1500 rpm, 10 mm). Analysis of cells for detection of the inflammatory cytokine IL-1 was performed by fixing, permeabilizing, and staining of cells and running flow cyctopmetry using a FACS Calibur BD Flow Cytometer.

In data set [1] the test system is human head and neck cancer cell line (HTB41/-43). In words: Intratumoral injection of head and neck cancer tumors in nude mice. Format: in vivo. The conditions noted are these: tumors in the abdomen injected, over 10 days; K-21 at 5% by weight. The protocol:
Nude mice were injected with human head and neck cancer cell line (HTB41/-43). […] The size of the sham injected tumors grew most rapidly over 10 days.

Protocol for shaved skin of mice: K-21 was dissolved in acetone to enhance its ability to wet the shaved skin on the backs of experimental mice. Mice in the positive control group were treated with a topical chemical carcinogenic agent, dimethybena(α)anthracene (DMBA), dissolved in acetone.
Thirty adult C57/BL6 mice were randomly divided into three groups of ten animals each to evaluate the topical irritation and potential anti-inflammatory properties of K-21. The hair on the back of all mice were shaved off with electric clippers.
Group 1 animals received topical application of K-21 (100 μg/100 μL) in acetone twice a week for two weeks (days 3, 6, 9, and 12) over the shaved area. These animals received no other treatment. Group II mice received a topical single dose of DMBA (100 μg/100 μL) in acetone over the shaved skin on the animals back on day 7. Group III animals received the same treatment as Group II mice on day 7 plus they were treated with topical K-21, twice a week before (days 3, 6) and one week after (days 9 and 12) a single DMBA application on day 7.
All animals were weighed daily, before and during the study to compare the weight gains of animals in all three groups. The behavior (eating, drinking, etc.) was monitored on a daily basis to determine if there was any gross skin irritation or initiation of tumors. […]

In the case of `Cc1c2ccccc2c(C)c2c1ccc1ccccc12` [DMBA, dimethybena(α)anthracene], in the data set with shaved skin of mice (single topical dose of DMBA on day 7, sacrificed day 14), the tumor formation entry is “Tumors formed in all ten”. The tumor diameter entry in the data set on shaved skin of mice (single topical dose of DMBA, day 14) is “about 0.5 cm”. Also, in the data set on IL-1, the “IL-1 positive cells of the total number of cells” value came out at 6%.
In the case of `N.N.[Cl][Pt][Cl]` [Cisplatin], the tumor growth entry in data set [1] is recorded as “grew the least”.
